# Results taken from patent US11166914B2, “Tumor therapeutic agent and kit containing gemcitabine liposome composition” (FUJIFILM Corporation, priority 2015, dated 2021).
# Where a name gives a salt, the structure may show the parent alone.
# Legend:
# [1] = test system: malignant tumors; settings: gemcitabine single agent, cancer patients; N Engl J Med 2013, 369 (18), 1691-1703; cited from earlier work
# [2] = test system: Capan-1 cells of a human pancreatic cancer cell strain; assay: Pharmacological test on Capan-1 subcutaneous transplantation tumor-bearing mouse model; assay type: in vivo, female nude mouse; settings: single agent, no Abx; Gem 240 mg/kg or composition A 3 mg/kg as gemcitabine; tail vein once a week for 3 weeks from day 17
# Protocol: The volume of a tumor was calculated using the following equation by measuring the major axis (a) and the minor axis (b) of the tumor with calipers. (a×b^2)×0.5 (where “a” is the major axis and “b” is the minor axis.) Equation: […]
# Gemcitabine (hereinafter, also referred to as Gem), abraxane (hereinafter, also referred to as Abx), and a gemcitabine-contained liposome composition (hereinafter, also referred to as a composition A) were used as test substances.
# Gem was prepared by dissolving gemcitabine hydrochloride (manufactured by TEVA) in physiological saline. Abx obtained by dissolving abraxane (manufactured by Celgene) in physiological saline was used. A gemcitabine-contained liposome composition prepared in Reference Example 1 was used.
# 1×10^7 Capan-1 cells of a human pancreatic cancer cell strain were transplanted subcutaneously into the flank of a female nude mouse to form subcutaneous tumors. The effect of controlling the subcutaneous tumor in combination administration of Abx and the composition A was evaluated using the volume of the tumor as an index. As test substances, a sucrose solution was used as a group 1, Gem was used as a group 2, a composition A was used as a group 3, Abx and Gem were respectively used as a group 4 and a group 5, and Abx and a composition A were respectively used as a group 6 and a group 7. Groups 1 to 5 are comparative examples and groups 6 and 7 are examples. All test substances were administered to the tail vein once a week from day 17 after transplantation for a total of 3 weeks.
# Tukey's multiple comparisons test was performed as a statistical analysis, and a P value less than 5% among the groups was determined to indicate that there is a statistically significant difference. Graphpad Prism version 5.03 was used for data processing.
# [3] = gemcitabine single agent; background statement; cited from earlier work
structure (smiles),measurement,setting,value
"Nc1ccn([C@@H]2O[C@H](CO)[C@@H](O)C2(F)F)c(=O)n1 [Gem, gemcitabine hydrochloride]",Efficiency of single agent to a tumor,[1],10%
same,Median survival period,[1],6.7 months
same,"Number of days until tumor volume average value of 2,000 mm^3 is reached",[2],52 days
same,Tumor regression rate from start of medication,[2],N.R.
same,Tumor volume average value on day 38 after transplantation,[2],1397^a) mm^3
same,Retention time in blood,[3],20 min
